± gives the expanded uncertainty stated by the source.
Assay: xn = mol fraction of the nth substance listed
Settings: 101 kPa, Liquid, Vibrating tube method

CC(C)NCCO [2-isopropylaminoethanol] + O
mass density [kg/m3]
Settings | x1 = 0.00785 | x1 = 0.00993 | x1 = 0.0147 | x1 = 0.02052 | x1 = 0.02925 | x1 = 0.04009 | x1 = 0.04971 | x1 = 0.0589 | x1 = 0.06926 | x1 = 0.08132
283.15 K | 998.279 ± 0.2 | 997.915 ± 0.2 | 997.627 ± 0.2 | 997.186 ± 0.2 | 997.048 ± 0.2 | 997.046 ± 0.2 | 996.952 ± 0.2 | 996.873 ± 0.2 | 996.18 ± 0.2 | 994.687 ± 0.2
288.15 K | 997.569 ± 0.2 | 997.164 ± 0.2 | 996.747 ± 0.2 | 996.156 ± 0.2 | 995.726 ± 0.2 | 995.322 ± 0.2 | 994.86 ± 0.2 | 994.475 ± 0.2 | 993.417 ± 0.2 | 991.662 ± 0.2
293.15 K | 996.602 ± 0.2 | 996.129 ± 0.2 | 995.555 ± 0.2 | 994.798 ± 0.2 | 994.178 ± 0.2 | 993.399 ± 0.2 | 992.61 ± 0.2 | 991.925 ± 0.2 | 990.602 ± 0.2 | 988.598 ± 0.2
298.15 K | 995.343 ± 0.2 | 994.859 ± 0.2 | 994.252 ± 0.2 | 993.36 ± 0.2 | 992.43 ± 0.2 | 991.335 ± 0.2 | 990.229 ± 0.2 | 989.248 ± 0.2 | 987.663 ± 0.2 | 985.438 ± 0.2
303.15 K | 993.837 ± 0.2 | 993.31 ± 0.2 | 992.597 ± 0.2 | 991.578 ± 0.2 | 990.428 ± 0.2 | 989.011 ± 0.2 | 987.652 ± 0.2 | 986.463 ± 0.2 | 984.639 ± 0.2 | 982.2 ± 0.2
